According to paper PMC6934184, “Selective DNA-PKcs inhibition extends the therapeutic index of localized radiotherapy and chemotherapy” (The Journal of Clinical Investigation, 2019):

Molecular target: T1, KIT Y823D (Homo sapiens, UniProt P10721, Y823D)
T1 construct: purchased Thermo Fisher Scientific (Life Technologies) SelectScreen
Experiment: SelectScreen LanthaScreen
Type: binding
Settings: read-out: % displacement
Procedure, shortened: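 NU5455 was profiled across the SelectScreen Broad panel of kinase activity and binding assays. Z'LYTE reactions such as CSF1R ran at apparent Km ATP, while the Adapta CAMK1 assay used ATP listed as 10. Values are given as percent.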

T1 sequence (P10721 26-976 Y823D): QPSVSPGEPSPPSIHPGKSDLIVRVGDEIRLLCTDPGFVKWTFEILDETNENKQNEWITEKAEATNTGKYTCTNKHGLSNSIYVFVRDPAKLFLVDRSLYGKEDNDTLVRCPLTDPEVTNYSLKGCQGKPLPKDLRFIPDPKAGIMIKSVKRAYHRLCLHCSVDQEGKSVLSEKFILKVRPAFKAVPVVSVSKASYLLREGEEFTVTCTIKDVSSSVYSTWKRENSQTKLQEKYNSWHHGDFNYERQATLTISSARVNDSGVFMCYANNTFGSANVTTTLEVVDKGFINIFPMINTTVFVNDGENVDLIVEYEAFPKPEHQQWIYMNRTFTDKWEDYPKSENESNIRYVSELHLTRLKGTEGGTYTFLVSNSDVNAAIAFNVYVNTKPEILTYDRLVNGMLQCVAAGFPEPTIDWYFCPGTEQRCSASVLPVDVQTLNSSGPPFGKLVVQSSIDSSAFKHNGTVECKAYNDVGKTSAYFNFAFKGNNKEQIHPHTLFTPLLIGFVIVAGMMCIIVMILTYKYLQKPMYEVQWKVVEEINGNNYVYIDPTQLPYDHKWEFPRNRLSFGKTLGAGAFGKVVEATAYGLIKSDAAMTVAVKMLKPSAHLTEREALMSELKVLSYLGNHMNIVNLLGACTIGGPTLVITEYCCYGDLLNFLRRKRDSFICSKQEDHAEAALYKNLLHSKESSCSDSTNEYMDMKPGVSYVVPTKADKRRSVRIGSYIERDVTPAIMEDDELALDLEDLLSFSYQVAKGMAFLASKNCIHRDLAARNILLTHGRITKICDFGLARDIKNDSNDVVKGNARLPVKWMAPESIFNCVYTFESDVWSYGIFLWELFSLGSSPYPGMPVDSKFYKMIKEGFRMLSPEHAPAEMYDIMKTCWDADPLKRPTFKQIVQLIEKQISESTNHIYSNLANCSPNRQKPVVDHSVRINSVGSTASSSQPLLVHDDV

SMILES: CN(C(=O)CN1CCOCC1)c1ccc2sc3c(-c4cccc5c(=O)cc(N6CC7CCC(C6)O7)oc45)cccc3c2c1 [NU5455]
- inhibition at 1 µM: 5.6%
